# Marks after values point to notes of the source that are not given here.
# Key:
# [1] = test system: phosphorylated acetyl-CoA carboxylase (ACC); experiment: Phosphorylated acetyl-CoA carboxylase (ACC) amount in muscle cell; type: cell-based, Mouse; details: for Phospho-ACC amount (%): 3 days, amended with total ACC, no compound = 100%
# Protocol: • (1) In the same manner as in Example 1, C2C12 cells were cultured in a growth medium. After reaching subconfluence of not less than 90%, the medium was exchanged with a differentiation medium and the cells were cultured for about 4 days while exchanging the medium every 2 or 3 days until the cells differentiated to form a myotube. • (2) After confirmation of myotube formation under a microscope, the test compound (0.1-10 nM) was added to a differentiation medium and cultured for 3 days. Thereafter, the cells were fixed with 4% formaldehyde phosphate buffer for 10 min, and washed 4 times with PBS containing 0.1% TritonX-100. • (3) Odyssey Blocking Buffer (LI-COR Biosciences) was added, and the mixture was incubated at room temperature for 1 hr. Thereafter, primary antibody (ACCα (T-18) (Santacruz) and Phospho-ACC (Ser79) (Upstate)) were added, and the mixture was incubated at 4° C. overnight. • (4) The cells were washed 4 times with PBS containing 0.1% Tween20, secondary antibody (Donkey anti-goat IRDye 800CW (LI-COR Biosciences) and Donkey anti-mouse IRDye 680 (LI-COR Biosciences)) were added and the mixture was incubated under shading at room temperature for 1 hr. • (5) The cells were washed 4 times with PBS containing 0.1% Tween20, PBS was added, and the phospho-ACC amount and total ACC amount were measured using Odyssey2.1 (LI-COR Biosciences).
# The numerical values in Table 20 were obtained by amending the phospho-ACC amount with total ACC amount and are shown based on the absence of addition of the compound as 100%. n is the number of samples.
# PPARγ = experiment: Adipocyte-related gene expression level: PPARγ; type: cell-based
# Protocol: In the same manner as in Example 10, the cells were cultured, and total RNA was extracted using Rneasy96 kit (Qiagen) from the cell immediately before and 6 days after addition of […] of the compound of Reference Example 1. cDNA was prepared from the total RNA using TaqMan reverse transcription reagent (Applied Biosystems), quantitative PCR was performed by ABI PRISM7000 or 7000 using TaqMan Universal PCR master mix (Applied Biosystems) and commercially available primers, and the expression level of each gene was determined. The commercially available primers used were as follows. • C/EBPα (Mm00514283_s1, TaqMan Gene Expression Assays, Applied Biosystems) • C/EBPβ (Mm00843434_s1, TaqMan Gene Expression Assays, Applied Biosystems) • KLF15 (Mm00517792_m1, TaqMan Gene Expression Assays, Applied Biosystems) • PPARγ (Mm00440945_m1, TaqMan Gene Expression Assays, Applied Biosystems)
# The expression level was amended by the amount of 36B4 (Takeda Pharmaceutical Company Limited) in the same manner as in Example 3, and the relative values to the value immediately before addition of each gene compound as 1 are shown in Table 16. The data in Table 16 show mean±standard deviation at n=3-4 (n is the number of samples).
# Female KKA^y mice = experiment: Improvement of insulin resistance in KKA^y mouse (plasma glucose AUC after insulin); type: in vivo; details: 4 weeks, insulin 0.5 U/kg i.p.
# Protocol: Female KKA^y mice (12-week-old, CLEA Japan, Inc.) were bred while allowing free ingestion of both feed and water. The mice were bred for acclimation with powder CE-2 (CLEA Japan, Inc.) from 2 weeks before administration of the compound. The body weight and plasma markers were measured and, at 14 weeks of age, they were divided into 4 groups (6 per group) such that the measured values were uniform. The compound of Reference Example 1 was administered for 4 weeks in a mixed feed (0.01-0.09 mg/kg/day). After fasting overnight, insulin was intraperitoneally administered at 0.5 U/kg and, after 30, 60 and 120 min, blood samples were collected.
# EGLN3 = experiment: Muscle-related gene expression in myoblast: EGLN3; type: cell-based, Mouse; details: for EGLN3/36B4 expression level: 10 μM, 1 day, relative value
# Protocol: • (1) In the same manner as in Example 1, C2C12 cell was cultured, and the compound of Reference Example 1 (10 nM) was added. A DMSO solution was added to the control group instead of the test compound. • (2) One day after the addition of the test compound or DMSO solution, total RNA was extracted using Rneasy 96 kit (Qiagen) and according to the manual of the kit, and cDNA was prepared using TaqMan reverse transcription reagent (Applied Biosystems). • (3) The expression level of MyoD (Mm00440387_m1, TaqMan Gene Expression Assays, Applied Biosystems), myogenin (Mm00446194_m1, TaqMan Gene Expression Assays, Applied Biosystems), creatine kinase (CKM) (Mm00432556_m1, TaqMan Gene Expression Assays, Applied Biosystems), EGLN3 (Mm00472200_m1, TaqMan Gene Expression Assays, Applied Biosystems) was measured by quantify PCR using ABI PRISM 7900 (Applied Biosystems). The expression level of each gene, shown in Table 3, Table 4, Table 5 and Table 6, was obtained by amendment against the expression level of 36B4 (Takeda Pharmaceutical Company Limited), and is shown in a relative value to the value of the control group cultured in a growth medium as 1.
# The data of Table 3, Table 4, Table 5 and Table 6 show mean±standard deviation at n=6 (n is the number of samples).
# The following depicts the sequences of genes used for the amendment. • 36B4-F: 5′-TGCCACACTCCATCATCAATG-3′ (SEQ ID NO: 1) • 36B4-R: 5′-CGCAAATGCAGATGGATCAG-3′ (SEQ ID NO: 2) • 5′-VIC-ACCTTCCCACTTACTGAAAAGGTCAAGGCC-TAMRA-3′ (SEQ ID NO: 3)
structure (smiles),measurement,setting,value
"Cc1ncccc1Oc1sc(C(N)=O)c2c1-c1c(cnn1C)CC2 [Ref. Ex. 1, 1-methyl-8-[(2-methylpyridin-3-yl)oxy]-4,5-dihydro-1H-thieno[3,4-g]indazole-6-carboxamide]",Phospho-ACC amount (%),[1]; compound 0.1 nM,112%
same,Phospho-ACC amount (%),[1]; compound 0.3 nM,125%
same,Phospho-ACC amount (%),[1]; compound 1 nM,136%
same,Phospho-ACC amount (%),[1]; compound 3 nM,167%
same,Phospho-ACC amount (%),[1]; compound 10 nM,163%
same,phospho-ACC amount (in words),[1]; differentiated C2C12 muscle cell,increased
same,PPARγ expression level (amended by 36B4),"PPARγ; 10 μm [sic] of compound, 6 days after addition, value immediately before addition = 1",4.5 ± 0.9
same,expression level of PPARγ (in words),PPARγ; C3H10T1/2 cell,decreased
same,glucose AUC0-120 min,Female KKA^y mice; 0.01 mg/kg/day in mixed feed,241.0 mg·h/dL
same,glucose AUC0-120 min (mg h/dL),Female KKA^y mice; 0.03 mg/kg/day in mixed feed,184.7* mg h/dL
same,glucose AUC0-120 min (mg h/dL),Female KKA^y mice; 0.09 mg/kg/day in mixed feed,182.5* mg h/dL
same,expression of EGLN3 (in words),EGLN3; C2C12 cells cultured in a differentiation medium,increased
same,EGLN3/36B4 expression level,EGLN3; DM (differentiation medium),2.07 ± 1.15
same,EGLN3/36B4 expression level,EGLN3; GM (growth medium),2.12 ± 0.15
